Data on three compounds can be found in publication PMC6539005, “Half-Wave Potentials and In Vitro Cytotoxic Evaluation of 3-Acylated 2,5-Bis(phenylamino)-1,4-benzoquinones on Cancer Cells” (Molecules, 2019).

Data set [1] deals with DU-145 (prostate) cells. In words: MTT cytotoxicity assay, DU-145. Format: cell-based. The settings on record: Homo sapiens, 48 h incubation (b12: 72 h), n = 3, read-out: IC50 ± SEM DU-145. The protocol: (§1) The 3-acyl-2,5-bis(phenylamino)-1,4-benzoquinones 2a–q were evaluated for their in vitro cytotoxic activities against normal human embryonic kidney cells (HEK-293 cells) and two human cancer cell lines (T24 and DU-145 cells) in 72 h drug exposure assays. The cytotoxic activities of the new compounds were measured using conventional microculture tetrazolium reduction assays. The cytotoxic activities are expressed in terms of IC50. Doxorubicin, a clinically used anti-cancer agent, was taken as a positive control.
(§2) Human cancer cell lines T24 (bladder) and DU-145 (prostate), and non-tumor HEK-293 cells were obtained from the American Type Culture Collection (ATCC, Manassas, VA, USA). The cultures were maintained at a density of 1× 10^5 cells/mL and the medium was changed at 48- to 72-h intervals. They were cultured in high-glucose Dulbecco’s modified Eagle medium (Gibco, Grand Island, NY, USA) supplemented with 10% fetal calf serum, penicillin (100 U/mL), and streptomycin (100 μg/mL). All cultures were kept at 37 °C in 95% air/5% CO2 at 100% humidity. Phosphate-buffered saline (PBS) was purchased from Gibco. Cells were incubated at the indicated times at 37 °C, with or without quinones at various concentrations.
(§3) The cytotoxicity of the quinones was assessed by following the reduction of MTT (3-(4,5-Dimethylthiazol-2-yl)-2,5-diphenyltetrazolium bromide) to formazan blue. Cells were seeded into 96-well plates at a density of 10,000 cells/well for 24 h and then incubated for 48 h, with or without the quinone derivatives. Doxorubicin was used as the standard chemotherapeutic agent (positive control). Cells were then washed twice with warm PBS and incubated with MTT (0.5 mg/mL) for 2 hours at 37 °C. Blue formazan crystals were solubilized by adding 100 µL DMSO/well, and the optical density of the coloured solutions was subsequently read at 550 nm. Results are expressed as percentage of MTT reduction, compared to untreated control conditions. The IC50 values were calculated using the GraphPad Prism software (San Diego, CA, USA).

Data set [2] relates to mTOR. Kind of data set: qPCR relative gene expression in T24 cells, mTOR. The settings on record: 48 h; 2c at 32 µM, 2d at 68 µM; normalized to B2M, 2^−ΔΔCt vs vehicle; mean ± SEM, n = 5. Type of data set: cell-based, human. The protocol: (§4) The T24 cells were cultured as previously mentioned. They were seeded into 6-well plates (2 × 10^5 cells/well) and, after 24 h of incubation, they were treated for 48 h with 2c and 2d (at 32 and 68 µM, respectively). Afterwards, they were washed with phosphate-buffered saline. The cellular lysate was prepared with E.Z.N.A.® RNA-Lock Reagent (Omega Bio-tek, Norcross, GA, USA) to preserve and immediately stabilize the total RNA for the subsequent gene expression assays. The total RNA isolated from the cells using the E.Z.N.A.® HP Total RNA Isolation Kit (Omega Bio-tek) was reverse-transcribed to cDNA using the AffinityScript QPCR cDNA Synthesis Kit (Agilent Technologies, Santa Clara, CA, USA) and 1000 ng of the RNA sample.
(§5) The cDNA synthesized was employed for qPCR using Brilliant III Ultra-Fast SYBR® Green QPCR Master Mix (Agilent Technologies) in a Mx3000P qPCR System (Agilent Technologies), employing a 96-well plate with 20 μL of PCR reaction per well and 10 pmol each of forward and reverse gene-specific primers. Ten genes were analyzed (see Table 4). The relative gene expressions were determined using Beta-2-microglobulin (B2M) as housekeeping, and the delta-delta Ct method (2^−ΔΔCt method) with regard to the vehicle-treated group (i.e., the reference group). Five biological replicates were used from each group (treated and reference group). […]

For data set [3], the system named is T24 (bladder) cells. Kind of data set: MTT cytotoxicity assay, T24. The settings on record: Homo sapiens, 48 h incubation (b12: 72 h), n = 3, read-out: IC50 ± SEM T24. Type of data set: cell-based, human. The method, then: as §1, §2, §3
The test system of data set [4] is TP53. Kind of data set: qPCR relative gene expression in T24 cells, TP53. Type of data set: cell-based, human. The settings on record: 48 h; 2c at 32 µM, 2d at 68 µM; normalized to B2M, 2^−ΔΔCt vs vehicle; mean ± SEM, n = 5. The protocol:
as §4, §5

The nature of data set [5]: Half-wave potentials by cyclic voltammetry in acetonitrile. Format: physicochemical. Particulars: rt, Pt electrode, vs non-aqueous Ag/Ag+, given as negative of potential; for −E^I 1/2: first one-electron reduction, 0.1 M tetraethylammonium tetrafluoroborate; for −E^II 1/2: second one-electron reduction. The protocol: The members of the 3-acyl-2,5-bis(phenylamino)-1,4-benzoquinone series 2a–q were evaluated for their half-wave potentials (E^I 1/2 and E^II 1/2). They were measured by cyclic voltammetry in acetonitrile at room temperature, using a platinum electrode and 0.1 M tetraethylamoniumtetrafluoroborate as the supporting electrolyte. The voltammograms were run in the potential range from 0.0 to −2.0 V versus non-aqueous Ag/Ag^+.

The subject of data set [6] is HDAC4. In words: qPCR relative gene expression in T24 cells, HDAC4. Format: cell-based, human. The settings on record: 48 h; 2c at 32 µM, 2d at 68 µM; normalized to B2M, 2^−ΔΔCt vs vehicle; mean ± SEM, n = 5. The method, then: as §4, §5
For data set [7], the system named is HEK-293 kidney cells. Kind of data set: MTT cytotoxicity assay, HEK-293. Type of data set: cell-based. The settings on record: Homo sapiens, HEK293, non-tumor cells, 48 h incubation (b12: 72 h), n = 3, read-out: IC50 ± SEM HEK-293. The protocol:
as §1, §2, §3

Data set [8] has as its system GSTP1. Kind of data set: qPCR relative gene expression in T24 cells, GSTP1. Format: cell-based, human. The settings on record: 48 h; 2c at 32 µM, 2d at 68 µM; normalized to B2M, 2^−ΔΔCt vs vehicle; mean ± SEM, n = 5. The protocol:
as §4, §5

In data set [9] the test system is T24 and DU-145 cells. In words: MTT cytotoxicity assay, both cancer cell lines. Type of data set: cell-based. Particulars: Homo sapiens; mean of T24 and DU-145 IC50. The method, then: as §1, §2, §3
Data set [10] relates to HDAC3. In words: qPCR relative gene expression in T24 cells, HDAC3. Type of data set: cell-based, human. Particulars: 48 h; 2c at 32 µM, 2d at 68 µM; normalized to B2M, 2^−ΔΔCt vs vehicle; mean ± SEM, n = 5. The protocol:
as §4, §5

For data set [11], the system named is BCL2. In words: qPCR relative gene expression in T24 cells, BCL2. Type of data set: cell-based, human. The settings on record: 48 h; 2c at 32 µM, 2d at 68 µM; normalized to B2M, 2^−ΔΔCt vs vehicle; mean ± SEM, n = 5. The method, then:
as §4, §5

In data set [12] the test system is CDC25A. Kind of data set: qPCR relative gene expression in T24 cells, CDC25A. Type of data set: cell-based, human. The settings on record: 48 h; 2c at 32 µM, 2d at 68 µM; normalized to B2M, 2^−ΔΔCt vs vehicle; mean ± SEM, n = 5. The protocol: as §4, §5
The subject of data set [13] is HRAS. Kind of data set: qPCR relative gene expression in T24 cells, HRAS. Type of data set: cell-based, human. The settings on record: 48 h; 2c at 32 µM, 2d at 68 µM; normalized to B2M, 2^−ΔΔCt vs vehicle; mean ± SEM, n = 5. The method, then: as §4, §5
Data set [14] concerns GSR. Kind of data set: qPCR relative gene expression in T24 cells, GSR. Format: cell-based, human. The settings on record: 48 h; 2c at 32 µM, 2d at 68 µM; normalized to B2M, 2^−ΔΔCt vs vehicle; mean ± SEM, n = 5. The method, then: as §4, §5
Data set [15] deals with human colon adenocarcinoma. Details: method as in PMID 3746824. The settings on record: cited from earlier work.
Data set [16] relates to leukemia L1210. Details: method as in PMID 3746824. Particulars: cited from earlier work.

For the compound `CCCCCC(=O)C1=C(Nc2ccccc2)C(=O)C=C(Nc2ccccc2)C1=O` [2c, 3-Hexanoyl-2,5-bis(phenylamino)-1,4-benzoquinone], the IC50 in [1] was 45.2 ± 4.5 µM; in data set [3] it was 16.3 ± 1.7 µM; in data set [7], more than 100 µM; in [9], 30.7 µM. Besides, in data set [2], the Relative Expression Levels in T24 Cells, mTOR stood at 0.99 ± 0.13. In addition, in data set [4], the Relative Expression Levels in T24 Cells, TP53 is 1.06 ± 0.11. In addition, the “−E^I 1/2” value in [5] is 570 mV. The “−E^II 1/2” value in data set [5] is 1090 mV. Besides, the Relative Expression Levels in T24 Cells, HDAC4 in [6] is 1.08 ± 0.13. In data set [8], the Relative Expression Levels in T24 Cells, GSTP1 was found to be 0.9 ± 0.08. The same compound yielded a Relative Expression Levels in T24 Cells, HDAC3 in [10] of 1.03 ± 0.15. Moreover, the Relative Expression Levels in T24 Cells, BCL2 in [11] stood at 1.28 ± 0.15. This compound returned a Relative Expression Levels in T24 Cells, CDC25A in [12] of 1.54 ± 0.13. This compound came in with a Relative Expression Levels in T24 Cells, HRAS in [13] of 1.07 ± 0.13. For the same compound, the Relative Expression Levels in T24 Cells, GSR in data set [14] is 0.96 ± 0.05.
For `CC(C)c1ccc(NC2=C(Cl)C(=O)C(Nc3ccc(C(C)C)cc3)=C(Cl)C2=O)cc1` [B], the “in vitro inhibitory activity against human colon adenocarcinoma proliferation” value in data set [15] is recorded as “good in vitro inhibitory activity”. The “activity against the leukemia L1210 screening in vitro” value in [16] was “active”.
With `CCCCCCCC(=O)C1=C(Nc2ccccc2)C(=O)C=C(Nc2ccccc2)C1=O` [2d, 3-Octanoyl-2,5-bis(phenylamino)-1,4-benzoquinone], the IC50 in data set [1] is 23.5 ± 2.1 µM; in [3], 34 ± 3.7 µM; in data set [7] it was more than 100 µM; in data set [9], 28.7 µM. The compound further showed a Relative Expression Levels in T24 Cells, mTOR in data set [2] of 0.95 ± 0.02. The compound further came in with a Relative Expression Levels in T24 Cells, TP53 in [4] of 1.01 ± 0.04. Besides, in data set [5], the “−E^I 1/2” value was 590 mV. The “−E^II 1/2” value in [5] amounted to 910 mV. In addition, the Relative Expression Levels in T24 Cells, HDAC4 in [6] came to 1.01 ± 0.02. In [8], this compound returned a Relative Expression Levels in T24 Cells, GSTP1 of 1.21 ± 0.04. Further, in data set [10], the Relative Expression Levels in T24 Cells, HDAC3 was 1.02 ± 0.05. Besides, the Relative Expression Levels in T24 Cells, BCL2 in data set [11] worked out at 0.8 ± 0.04. The Relative Expression Levels in T24 Cells, CDC25A in data set [12] was determined as 1.07 ± 0.03. In data set [13], the Relative Expression Levels in T24 Cells, HRAS came out at 1.33 ± 0.06. In [14], this compound registered a Relative Expression Levels in T24 Cells, GSR of 1.07 ± 0.04.
